From ChEMBL document CHEMBL1201862, “PubChem BioAssay data set” (2004)
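Following 48 hours of exposure in 96-well plates, responses at five concentrations were used to interpolate endpoints linearly. Here, GI50 denotes the concentration required for 50% inhibition of growth.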 The source made the active and inactive calls. Rule as the data show it: active = GI50 up to about 1.1 µM and inactive = higher.

Columns and labels:
Assay in all cases: inhibition of tumour cell growth, NCI panel, 48 h
[1] = tested on: BT-549
[2] = tested on: EKVX
[3] = tested on: HCC 2998
[4] = tested on: HOP-62
[5] = tested on: HT-29
[6] = tested on: Hs-578T
[7] = tested on: K562
[8] = tested on: KM12
[9] = tested on: MDA-MB-231
[10] = tested on: MDA-MB-435
[11] = tested on: OVCAR-4
[12] = tested on: SF-268
[13] = tested on: SF-539
[14] = tested on: SK-MEL-28
[15] = tested on: SN12C
[16] = tested on: SW-620
[17] = tested on: TK-10
[18] = tested on: U-251
[19] = tested on: UACC-257

SMILES	GI50 [1]	GI50 [2]	GI50 [3]	GI50 [4]	GI50 [5]	GI50 [6]	GI50 [7]	GI50 [8]	GI50 [9]	GI50 [10]	GI50 [11]	GI50 [12]	GI50 [13]	GI50 [14]	GI50 [15]	GI50 [16]	GI50 [17]	GI50 [18]	GI50 [19]
CN(C)Cc1cc(C(C)(C)C)cc(CN(C)C)c1O	> 100 µM (inactive)	40.6 µM (inactive)	17.1 µM (inactive)	68.5 µM (inactive)	35.8 µM (inactive)	> 100 µM (inactive)	> 100 µM (inactive)	70.8 µM (inactive)	92.5 µM (inactive)	> 100 µM (inactive)	> 100 µM (inactive)	79.3 µM (inactive)	86.7 µM (inactive)	> 100 µM (inactive)	73.3 µM (inactive)	66.1 µM (inactive)	67.3 µM (inactive)	98.6 µM (inactive)	> 100 µM (inactive)
O=C(/C=C/c1ccco1)CC(=O)/C=C/c1ccco1	18.2 µM (inactive)	20.5 µM (inactive)	12.8 µM (inactive)	11.7 µM (inactive)	> 10 µM (inactive)	16.4 µM (inactive)	9.89 µM (inactive)	28.8 µM (inactive)	> 10 µM (inactive)	10.1 µM (inactive)	15.5 µM (inactive)	> 10 µM (inactive)	13.9 µM (inactive)	12.2 µM (inactive)	10.1 µM (inactive)	10.9 µM (inactive)	26.3 µM (inactive)	13.7 µM (inactive)	37.8 µM (inactive)
COc1ccc2c(CCN)c(C(=O)O)[nH]c2c1	> 100 µM (inactive)	> 100 µM (inactive)	> 100 µM (inactive)	> 100 µM (inactive)	> 100 µM (inactive)	> 100 µM (inactive)	> 24.5 µM (inactive)	> 100 µM (inactive)	> 100 µM (inactive)	> 100 µM (inactive)	> 100 µM (inactive)	> 100 µM (inactive)	> 100 µM (inactive)	> 100 µM (inactive)	> 100 µM (inactive)	> 100 µM (inactive)	> 100 µM (inactive)	> 100 µM (inactive)	> 100 µM (inactive)
CC(=O)N(C)C(C(=O)N1CC(C)CC1C(=O)N(C)C1C(=O)NC(CC(C)C)C(=O)N2CC(C)CC2C(=O)NC(CC(C)C)C(=O)N(C)C(C(C)C)C(=O)N2CCCC2C(=O)N(C)C(CC(C)C)C(=O)NCC(=O)OC1C)C(C)C (stereo not given)	> 100 µM (inactive)	> 100 µM (inactive)	> 100 µM (inactive)	> 100 µM (inactive)	> 100 µM (inactive)	> 100 µM (inactive)	> 100 µM (inactive)	> 100 µM (inactive)	> 100 µM (inactive)	> 100 µM (inactive)	> 100 µM (inactive)	> 100 µM (inactive)	> 100 µM (inactive)	> 100 µM (inactive)	> 100 µM (inactive)	> 100 µM (inactive)	> 100 µM (inactive)	> 100 µM (inactive)	> 100 µM (inactive)
O=C(N/N=C\c1ccc([N+](=O)[O-])cc1)Nc1ccc2ccccc2c1	45.4 µM (inactive)	44.6 µM (inactive)	25.4 µM (inactive)	22.2 µM (inactive)	27.1 µM (inactive)	26 µM (inactive)	73.6 µM (inactive)	23.3 µM (inactive)	26.1 µM (inactive)	34.2 µM (inactive)	21.5 µM (inactive)	35.1 µM (inactive)	20.7 µM (inactive)	46.5 µM (inactive)	45.5 µM (inactive)	23.1 µM (inactive)	37.5 µM (inactive)	21.4 µM (inactive)	44.3 µM (inactive)
Cc1ccc2c(O)cc(-c3ccsc3)nc2n1	4.46 µM (inactive)	16.9 µM (inactive)	5.9 µM (inactive)	10.8 µM (inactive)	5.62 µM (inactive)	3.82 µM (inactive)	2.9 µM (inactive)	4.33 µM (inactive)	11.5 µM (inactive)	0.597 µM (active)	> 29.9 µM (inactive)	14.4 µM (inactive)	5.93 µM (inactive)	7.23 µM (inactive)	5.83 µM (inactive)	1.75 µM (inactive)	26.5 µM (inactive)	4.65 µM (inactive)	16.5 µM (inactive)
C=CCOC(=O)C[C@H](NC(=O)[C@H](Cc1ccc(O)cc1)NCC(F)(F)F)C(=O)OCC=C	> 100 µM (inactive)	25.5 µM (inactive)	83.4 µM (inactive)	> 100 µM (inactive)	> 100 µM (inactive)	41.7 µM (inactive)	39.2 µM (inactive)	> 100 µM (inactive)	72.9 µM (inactive)	41.3 µM (inactive)	> 100 µM (inactive)	37.7 µM (inactive)	57.8 µM (inactive)	20.6 µM (inactive)	45 µM (inactive)	54.3 µM (inactive)	> 100 µM (inactive)	> 100 µM (inactive)	20.8 µM (inactive)
COC(=O)c1c(C)cccc1CC1Cc2c(C)cccc2C1=O (stereo not given)	35.9 µM (inactive)	33.7 µM (inactive)	27.9 µM (inactive)	61.9 µM (inactive)	30.5 µM (inactive)	35.3 µM (inactive)	29.6 µM (inactive)	20.1 µM (inactive)	32.4 µM (inactive)	21.7 µM (inactive)	32.8 µM (inactive)	31 µM (inactive)	40.8 µM (inactive)	55.8 µM (inactive)	43.4 µM (inactive)	40.6 µM (inactive)	35.2 µM (inactive)	40 µM (inactive)	27.8 µM (inactive)
CC(C)c1[nH]nc(C(N)=O)c1/N=N/N(C)C	34.9 µM (inactive)	47.9 µM (inactive)	> 100 µM (inactive)	> 100 µM (inactive)	> 100 µM (inactive)	54.7 µM (inactive)	79.8 µM (inactive)	61.1 µM (inactive)	> 100 µM (inactive)	82.2 µM (inactive)	> 100 µM (inactive)	59.8 µM (inactive)	69.2 µM (inactive)	> 100 µM (inactive)	75.3 µM (inactive)	> 100 µM (inactive)	64.7 µM (inactive)	49.7 µM (inactive)	> 100 µM (inactive)
CC(=O)C(=[N+]=[N-])C(=O)NCC#N	> 10 µM (inactive)	> 10 µM (inactive)	> 10 µM (inactive)	> 10 µM (inactive)	> 10 µM (inactive)	> 10 µM (inactive)	> 10 µM (inactive)	6.93 µM (inactive)	> 10 µM (inactive)	> 10 µM (inactive)	> 10 µM (inactive)	> 10 µM (inactive)	> 10 µM (inactive)	> 10 µM (inactive)	> 10 µM (inactive)	> 10 µM (inactive)	> 10 µM (inactive)	> 10 µM (inactive)	> 10 µM (inactive)
O/N=C1\C=Cc2nn(-c3ccccc3)nc2\C1=N/O	3.4 µM (inactive)	5.41 µM (inactive)	14.5 µM (inactive)	4.3 µM (inactive)	4.85 µM (inactive)	1.85 µM (inactive)	0.695 µM (active)	4.55 µM (inactive)	4.06 µM (inactive)	2.74 µM (inactive)	5.36 µM (inactive)	4.27 µM (inactive)	4.22 µM (inactive)	6.21 µM (inactive)	7.24 µM (inactive)	5.41 µM (inactive)	17.8 µM (inactive)	7.16 µM (inactive)	3.11 µM (inactive)
CCOC(=O)c1ccc(-c2cccs2)n1C	> 83 µM (inactive)	48.5 µM (inactive)	> 100 µM (inactive)	> 55.5 µM (inactive)	47.2 µM (inactive)	43.4 µM (inactive)	60.5 µM (inactive)	> 100 µM (inactive)	> 100 µM (inactive)	> 92.5 µM (inactive)	79.8 µM (inactive)	> 100 µM (inactive)	> 100 µM (inactive)	> 100 µM (inactive)	> 100 µM (inactive)	> 80.7 µM (inactive)	> 100 µM (inactive)	> 100 µM (inactive)	> 79.1 µM (inactive)
Cc1ccnc2sc3ccccc3c(=O)c12	25.9 µM (inactive)	18 µM (inactive)	42.3 µM (inactive)	98.4 µM (inactive)	30.3 µM (inactive)	27.3 µM (inactive)	42.8 µM (inactive)	53.7 µM (inactive)	29.3 µM (inactive)	52.6 µM (inactive)	> 100 µM (inactive)	32.7 µM (inactive)	33.4 µM (inactive)	48.9 µM (inactive)	40.4 µM (inactive)	44.3 µM (inactive)	23.8 µM (inactive)	56.8 µM (inactive)	55.2 µM (inactive)
CCN(CC)c1nc(N(C)C)c2cc(OC)ccc2n1	56.4 µM (inactive)	25.1 µM (inactive)	18.5 µM (inactive)	92.7 µM (inactive)	10.2 µM (inactive)	31.2 µM (inactive)	20.8 µM (inactive)	26.6 µM (inactive)	35.5 µM (inactive)	30.1 µM (inactive)	43.6 µM (inactive)	25.8 µM (inactive)	21.3 µM (inactive)	28.3 µM (inactive)	22.2 µM (inactive)	24 µM (inactive)	34.4 µM (inactive)	27.5 µM (inactive)	24.7 µM (inactive)
Cc1ccc(/C=C2\Sc3scc(-c4ccccc4)[n+]3C2=O)cc1	17.4 µM (inactive)	19.3 µM (inactive)	27.7 µM (inactive)	26.2 µM (inactive)	24.7 µM (inactive)	3.38 µM (inactive)	12.3 µM (inactive)	18.5 µM (inactive)	17.5 µM (inactive)	9.27 µM (inactive)	29 µM (inactive)	17.9 µM (inactive)	22.3 µM (inactive)	51.5 µM (inactive)	21.4 µM (inactive)	20.6 µM (inactive)	19.8 µM (inactive)	16.2 µM (inactive)	22.8 µM (inactive)
